The source of these data is patent US11458138B2 (Novartis AG, priority 2017, dated 2022).

Structures are written as SMILES. Some results are limits rather than exact numbers.

As a reminder, the EC50 is the midpoint of the concentration-response curve. The IC50 is the midpoint of a concentration-inhibition curve. Lower therefore signals greater potency.

For assay [1], the system named is YAP nuclear translocation in HaCaT cells. The experiment in a line: YAP Translocation Assay (HaCaT Cells). The note with it: Homo sapiens, 24 hours. In kind it is cell-based, human. In short, it runs like this: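 HaCaT cells (20,000/well) in DMEM + 10% FBS were plated overnight at 37° C, then exposed to compound for 24 h at 37° C. Cells were fixed with PFA, permeabilized with 0.1% Triton/1.5% BSA and imaged by high-content imaging.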

The target in assay [2] is LATS1 (Homo sapiens (Human), UniProt O95835). Kind of assay: LATS1 biochemical assay (Table 1A, Compound Examples 1-290; method in the earlier part).
LATS1, sequence (O95835 whole entry, looked up): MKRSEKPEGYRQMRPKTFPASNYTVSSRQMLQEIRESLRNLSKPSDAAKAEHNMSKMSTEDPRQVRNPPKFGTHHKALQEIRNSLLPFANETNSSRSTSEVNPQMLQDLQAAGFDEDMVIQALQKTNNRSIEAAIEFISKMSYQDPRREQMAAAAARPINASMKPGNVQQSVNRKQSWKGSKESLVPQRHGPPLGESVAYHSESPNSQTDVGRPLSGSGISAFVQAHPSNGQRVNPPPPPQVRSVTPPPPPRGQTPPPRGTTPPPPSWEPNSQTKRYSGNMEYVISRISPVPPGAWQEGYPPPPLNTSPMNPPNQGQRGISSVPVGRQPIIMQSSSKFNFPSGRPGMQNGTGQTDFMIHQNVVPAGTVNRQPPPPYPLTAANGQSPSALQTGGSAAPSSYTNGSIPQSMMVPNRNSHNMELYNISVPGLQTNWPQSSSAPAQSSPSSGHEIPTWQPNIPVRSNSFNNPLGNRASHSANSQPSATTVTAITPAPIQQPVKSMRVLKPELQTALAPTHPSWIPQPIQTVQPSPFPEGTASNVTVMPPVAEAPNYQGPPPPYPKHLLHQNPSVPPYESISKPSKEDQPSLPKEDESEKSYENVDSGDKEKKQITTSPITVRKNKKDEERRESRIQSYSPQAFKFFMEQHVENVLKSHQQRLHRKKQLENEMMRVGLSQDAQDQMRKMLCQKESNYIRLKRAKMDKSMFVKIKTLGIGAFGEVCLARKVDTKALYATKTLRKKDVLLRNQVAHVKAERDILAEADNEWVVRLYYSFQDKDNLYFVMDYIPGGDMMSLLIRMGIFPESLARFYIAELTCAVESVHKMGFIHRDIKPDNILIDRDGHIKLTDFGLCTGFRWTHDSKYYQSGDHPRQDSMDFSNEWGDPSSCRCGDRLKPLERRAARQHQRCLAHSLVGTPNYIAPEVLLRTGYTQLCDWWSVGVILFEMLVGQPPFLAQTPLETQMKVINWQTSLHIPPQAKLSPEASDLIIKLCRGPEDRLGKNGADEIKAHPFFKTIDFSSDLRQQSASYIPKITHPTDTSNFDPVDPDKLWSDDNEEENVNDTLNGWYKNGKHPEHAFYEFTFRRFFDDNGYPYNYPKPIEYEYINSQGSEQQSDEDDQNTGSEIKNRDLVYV
LATS1, sequence (Q7L9L4 whole entry partner, looked up): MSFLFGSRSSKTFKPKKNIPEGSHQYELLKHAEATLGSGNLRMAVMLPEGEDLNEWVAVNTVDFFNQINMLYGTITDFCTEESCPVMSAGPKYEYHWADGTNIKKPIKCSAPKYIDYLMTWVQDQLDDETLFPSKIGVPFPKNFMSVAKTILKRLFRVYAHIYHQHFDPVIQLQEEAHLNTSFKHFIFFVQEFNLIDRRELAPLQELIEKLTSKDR
The test system of assay [3] is Phospho-YAP (Ser127) in JHH-5 cells. The experiment in a line: pYAP HTRF Assay (JHH-5 cells). In kind it is cell-based. Particulars: 2 hours. On the procedure: Briefly, JHH-5 cells are suspended at 0.48×10^6 cells/ml in William's E medium without phenol-red (Thermo Fisher Scientific Gibco catalog number A1217601) supplemented with 10% (v/v) heat-inactivated fetal bovine serum (Thermo Fisher Scientific Gibco catalog number 16140071) and penicillin-streptomycin at 100 U/ml each (Thermo Fisher Scientific Gibco catalog number 15140122). Cells are dispensed into 384well clear bottom culture plates (50 ul/well, at 24000 cells per well, Greiner catalog number 781091), and incubated for 24 hours in a cell culture incubator at 37° C. Test compounds are transferred into culture plates containing JHH-5 cells using an Echo550 (Labcyte) acoustic dispenser (50 nl/well), followed by incubation for 2 hours at 37° C. Lysis buffer (part of CisBio kit catalog number 64YAPPEI) is added to the assay plates as a four-fold concentrate (corresponding to 16 ul/well) and incubated for 30 minutes at room temperature with agitation. Lysate is transferred from culture plates into white low-volume 384well assay plates (12 ul/well, Greiner catalog number 784075), followed by the addition of 3 ul/well of detection antibodies (part of CisBio kit catalog number 64YAPPEI: 1:40 dilution of each pYAP d2 antibody and pYAP cryptate antibody stocks). The plates are sealed and incubated overnight (18 hours) at room temperature protected from light. Plates are read on an EnVision plate reader (Perkin Elmer) at emission wavelengths of 665 nm and 620 nm. The HTRF signal ratio x per well is calculated as [x=Signal(665 nm)/Signal(620 nm)×10000] as specified in the manufacturer's protocol.

Assay [4] concerns Phospho-YAP (SER127) in HaCaT cells. The experiment in a line: pYAP HTRF Assay (HaCaT Cells). In kind it is cell-based, human. Particulars: Homo sapiens, 2 hours. In short, it runs like this: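 HaCaT cells at 5500 cells/well were cultured 48 hours at 37° C, then treated with compound for 2 hours. Phospho-YAP (Ser127) was detected by HTRF after an overnight (20 hrs) room-temperature incubation, read as the 665 nm/620 nm ratio.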

`CC(C)(CNCC(=O)O)Nc1nc(-c2ccncc2)nc2cnccc12` [Example 30, 2-[(2-methyl-2-{[2-(pyridin-4-yl)pyrido[3,4-d]pyrimidin-4-yl]amino}propyl)amino]acetic acid] gave an EC50 in assay [1] of over 20 µM. Moreover, the IC50 in assay [2] was 0.039 µM; in assay [3], over 10 µM.
The compound `CN(C)CCC(C)(C)Nc1nc(-c2ccncc2)nc2cnccc12` [Example 109, dimethyl(3-methyl-3-{[2-(pyridin-4-yl)pyrido[3,4-d]pyrimidin-4-yl]amino}butyl)amine] had an EC50 in assay [1] of 4.71 µM. In addition, the IC50 is 0.977 µM in assay [4] and 1.5 µM in assay [3].
For `CCCNc1nc(-c2c[nH]c3ncncc23)nc2cnccc12` [Example 161, 4 N-propyl-2-{7H-pyrrolo[2,3-d]pyrimidin-5-yl}pyrido[3,4-d]pyrimidin-4-amine], the EC50 in assay [1] was over 20 µM. Further, the IC50 was over 100 µM in assay [4] and 0.025 µM in assay [2].
In the same order, the values of `Cc1[nH]ncc1-c1nc(N[C@H](C)c2ccccc2)c2ccncc2n1` [Example 168, 2-(5-methyl-1H-pyrazol-4-yl)-N-[(1R)-1-phenylethyl]pyrido[3,4-d]pyrimidin-4-amine] are 11.6 µM, 26.5 µM and 0.028 µM.
The matching figures for `C[C@@H](Nc1nc(-c2ccnn2C)nc2cnccc12)c1ccccc1` [Example 170, 2-(1-methyl-1H-pyrazol-5-yl)-N-[(1R)-1-phenylethyl]pyrido[3,4-d]pyrimidin-4-amine]: over 20 µM, over 10 µM and 1.28 µM.
The matching figures for `Cn1nccc1-c1nc(NC2(C)CC2)c2ccncc2n1` [Example 172, 2-(1-methyl-1H-pyrazol-5-yl)-N-(1-methylcyclopropyl)pyrido[3,4-d]pyrimidin-4-amine]: over 20 µM, over 10 µM and 0.017 µM.
In assay [1], `CC1(Nc2nc(-c3ccnnc3)nc3cnccc23)CC1` [Example 174, N-(1-methylcyclopropyl)-2-(pyridazin-4-yl)pyrido[3,4-d]pyrimidin-4-amine] came in with an EC50 of over 20 µM. The IC50 was over 10 µM in assay [4] and 0.197 µM in assay [2].
`CC1(Nc2nc(-c3cnco3)nc3cnccc23)CC1` [Example 175, N-(1-methylcyclopropyl)-2-(1,3-oxazol-5-yl)pyrido[3,4-d]pyrimidin-4-amine] gave an EC50 in assay [1] of over 20 µM. Besides, the IC50 is over 10 µM in assay [4] and 0.324 µM in assay [2].
The matching figures for `CC1(Nc2nc(-n3ccc4ncccc43)nc3cnccc23)CC1` [Example 179, N-(1-methylcyclopropyl)-2-{1H-pyrrolo[3,2-b]pyridin-1-yl}pyrido[3,4-d]pyrimidin-4-amine]: over 20 µM, over 10 µM and 0.002 µM.
In the case of `CC1(Nc2nc(-c3c[nH]nn3)nc3cnccc23)CC1` [Example 180, N-(1-methylcyclopropyl)-2-(1H-1,2,3-triazol-4-yl)pyrido[3,4-d]pyrimidin-4-amine], the EC50 in assay [1] was over 20 µM. For the same compound, the values for the IC50 in assay [4] and in assay [2] were over 10 µM and 0.322 µM, respectively.
In the same order, the values of `Cn1nccc1-c1nc(NC2(CO)CCC2)c2ccncc2n1` [Example 187, (1-{[2-(1-methyl-1H-pyrazol-5-yl)pyrido[3,4-d]pyrimidin-4-yl]amino}cyclobutyl)methanol] are over 20 µM, over 100 µM and 0.016 µM.
Consider `FC(F)(F)C1(Nc2nc(-c3cn[nH]c3)nc3cnccc23)CC1` [Example 188, 2-(1H-pyrazol-4-yl)-N-[1-(trifluoromethyl)cyclopropyl]pyrido[3,4-d]pyrimidin-4-amine], for which, in assay [1], the midpoint of the response, the EC50, lay at 12 µM. Further, the values for the IC50 in assay [4] and in assay [2] were over 100 µM and 0.017 µM, respectively.
The matching figures for `OCC1(Nc2nc(-c3cn[nH]c3)nc3cnccc23)CC1` [Example 192, (1-{[2-(1H-pyrazol-4-yl)pyrido[3,4-d]pyrimidin-4-yl]amino}cyclopropyl)methanol]: over 20 µM, over 10 µM and 0.201 µM.
In the same order, the values of `CC1(Nc2nc(-c3cn[nH]c3)nc3cnccc23)CC1` [Example 194, N-(1-methylcyclopropyl)-2-(1H-pyrazol-4-yl)pyrido[3,4-d]pyrimidin-4-amine] are 4.24 µM, 11.3 µM and 0.005 µM.
In the same order, the values of `Cn1cc(-c2nc(NC3(C)CC3)c3ccncc3n2)cn1` [Example 196, 2-(1-methyl-1H-pyrazol-4-yl)-N-(1-methylcyclopropyl)pyrido[3,4-d]pyrimidin-4-amine] are over 20 µM, over 10 µM and over 2.5 µM.
In assay [1], `Cc1nccc2c(NC3(C)CC3)nc(-c3ccncc3)nc12` [Example 199, 8-methyl-N-(1-methylcyclopropyl)-2-(pyridin-4-yl)pyrido[3,4-d]pyrimidin-4-amine] came in with an EC50 of 9.1 µM. The half-inhibitory concentration (IC50) came out at 0.001 µM in assay [2] and 3.2 µM in assay [3].
For the compound `CC1(Nc2nc(-c3ccncc3)nc3cncc(Cl)c23)CC1` [Example 252, 5-chloro-N-(1-methylcyclopropyl)-2-(pyridin-4-yl)pyrido[3,4-d]pyrimidin-4-amine], the EC50 in assay [1] was over 10 µM. The IC50 was found to be 6.98 µM in assay [4] and 0.002 µM in assay [2].
The matching figures for `CC(C)(C)Nc1nc(-c2ccncc2)nc2cncc(NCCOCCO)c12` [Example 253]: over 20 µM, 16.7 µM and 0.085 µM.
`CC[C@@H](C)Nc1cc(-c2ccncc2)nc2cnccc12` [Example 257, N-[(2R)-butan-2-yl]-2-(pyridin-4-yl)-1,7-naphthyridin-4-amine] gave an EC50 in assay [1] of over 20 µM. The figures for the IC50 in assay [2] and in assay [3] were 0.022 µM and over 10 µM, respectively.
The matching figures for `COCC(C)(C)Nc1cc(-c2ccncc2)nc2cnccc12` [Example 258, N-(1-methoxy-2-methylpropan-2-yl)-2-(pyridin-4-yl)-1,7-naphthyridin-4-amine]: 9.92 µM, 0.023 µM and over 10 µM.
`c1cc(-c2cc(NC3CCCC3)c3ccncc3n2)ccn1` [Example 264, N-cyclopentyl-2-(pyridin-4-yl)-1,7-naphthyridin-4-amine] registered an EC50 in assay [1] of 11.2 µM. Besides, the IC50 was 14.8 µM in assay [4] and over 10 µM in assay [3].
`CCCNc1cc(-c2ccncc2)nc2cnccc12` [Example 268, N-propyl-2-(pyridin-4-yl)-1,7-naphthyridin-4-amine]: in assay [1], the EC50 is over 20 µM. Moreover, the IC50 in assay [2] was 0.018 µM; in assay [3], over 10 µM.
On to `CC(C)(C)Nc1cc(-c2ccnc(N)c2)nc2cnccc12` [Example 274, 2-(2-aminopyridin-4-yl)-N-tert-butyl-1,7-naphthyridin-4-amine], for which, in assay [1], a half-maximal effect (EC50) was put at 17.3 µM. In addition, the IC50 in assay [2] was 0.013 µM; in assay [3], over 10 µM.
In the same order, the values of `CCN(CC)c1cc(-c2ccncc2F)nc2cnccc12` [Example 275, N,N-diethyl-2-(3-fluoropyridin-4-yl)-1,7-naphthyridin-4-amine] are 15.1 µM, 0.011 µM and over 10 µM.
The matching figures for `CN(C)CCC(C)(C)Nc1cc(-c2ccncc2F)nc2cnccc12` [Example 276, (3-{[2-(3-fluoropyridin-4-yl)-1,7-naphthyridin-4-yl]amino}-3-methylbutyl)dimethylamine]: over 20 µM, 0.017 µM and over 10 µM.
In turn, `CC(C)(CO)Nc1cc(-c2ccncc2F)nc2cnccc12` [Example 282, 2-{[2-(3-fluoropyridin-4-yl)-1,7-naphthyridin-4-yl]amino}-2-methylpropan-1-ol] returned an EC50 in assay [1] of 11.3 µM. Besides, the IC50 in assay [4] was determined as 8.27 µM; in assay [2], 0.01 µM.
Consider `CC1(C)CC(O)CCN1c1cc(-c2ccncc2Cl)nc2cnccc12` (stereo not drawn) [Example 283, 1-[2-(3-chloropyridin-4-yl)-1,7-naphthyridin-4-yl]-2,2-dimethylpiperidin-4-ol], for which the EC50 in assay [1] was determined as 14.2 µM. Also, the results for the IC50 in assay [4] and in assay [3] were 8.25 µM and over 10 µM, respectively.
Consider `CC(C)(CN1CCOCC1)Nc1cc(-c2ccncc2F)nc2cnccc12` [Example 284, 2-(3-fluoropyridin-4-yl)-N-[2-methyl-1-(morpholin-4-yl)propan-2-yl]-1,7-naphthyridin-4-amine], for which the EC50 in assay [1] was over 41.2 µM. Also, the IC50 in assay [4] was 46.5 µM; in assay [2] it was 0.03 µM.
